Laboratory results reported in US20250255848A1, “SUBSTITUTED 6,7-DIHYDRO-5H-BENZO[7]ANNULENE DERIVATIVES, PROCESSES FOR THEIR PREPARATION AND THERAPEUTIC USES THEREOF” (SANOFI, priority 2022, published 2025).

Molecular target: ERα (Homo sapiens (Human), UniProt P03372)
Test: Estrogen receptor degradation activity: breast cancer cell ERα in cell western assay
Type: cell-based
Details: MCF7 cells; for % Degradation At 0.3 μM: 4 hours, normalised to fulvestrant 0.1 μM and DMSO; for IC50 / DC50: 4 hours post compound addition, concentration which degrades 50% of the estrogen receptor; for DC50: read-out: Degradation IC50
Outline: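 MCF7 cells in phenol-red-free medium with 5% charcoal-stripped FBS, treated 4 h with 9-point 1:5 dilutions (0.3-0.0000018 μM final). ERα measured by in-cell western (anti-ER antibody, Alexa 488), normalized to Syto-64 DNA stain; % decrease scaled DMSO to 0.1 μM fulvestrant, IC50 in nM.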

ERα, sequence (P03372 whole entry): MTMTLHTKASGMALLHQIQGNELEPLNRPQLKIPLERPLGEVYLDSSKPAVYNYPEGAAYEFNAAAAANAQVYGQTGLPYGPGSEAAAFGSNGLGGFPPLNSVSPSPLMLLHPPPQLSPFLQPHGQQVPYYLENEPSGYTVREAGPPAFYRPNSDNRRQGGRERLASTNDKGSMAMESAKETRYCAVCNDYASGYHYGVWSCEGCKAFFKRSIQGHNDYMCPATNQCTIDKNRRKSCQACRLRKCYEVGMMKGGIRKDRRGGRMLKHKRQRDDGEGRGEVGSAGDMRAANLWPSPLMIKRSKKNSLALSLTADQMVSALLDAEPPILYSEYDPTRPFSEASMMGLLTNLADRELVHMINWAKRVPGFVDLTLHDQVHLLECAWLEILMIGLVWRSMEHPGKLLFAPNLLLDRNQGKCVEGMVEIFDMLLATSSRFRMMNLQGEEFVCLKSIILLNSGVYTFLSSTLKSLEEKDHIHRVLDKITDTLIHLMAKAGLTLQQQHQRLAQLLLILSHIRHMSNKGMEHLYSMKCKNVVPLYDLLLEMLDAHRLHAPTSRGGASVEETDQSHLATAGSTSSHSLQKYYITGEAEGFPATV

SMILES | % Degradation At 0.3 μM [%] | IC50 [pM] | DC50 [pM]
COc1c(C2=C(c3ccc(C=C4CN(CCCF)C4)cc3)c3ccc(C(=O)O)cc3CCC2)cccc1C(F)(F)F [Compound 63, 9-(4-((1-(3-fluoropropyl)azetidin-3-ylidene)methyl)phenyl)-8-(2-methoxy-3-(trifluoromethyl)phenyl)-6,7-dihydro-5H-benzo[7]annulene-3-carboxylic acid] | 94 | 1000 | –
O=C(O)c1ccc2c(c1)CCCC(c1cccc3c1CCCO3)=C2c1ccc(C=C2CN(CCCF)C2)cc1 [Compound 64, 8-(chroman-5-yl)-9-(4-((1-(3-fluoropropyl)azetidin-3-ylidene)methyl)phenyl)-6,7-dihydro-5H-benzo[7]annulene-3-carboxylic acid] | 96 | 3100 | –
CC1(C)CCC(C2=C(c3ncc(C=C4CN(CCCF)C4)cc3F)c3ccc(C(=O)O)cc3CCC2)CC1 [Compound 65, 8-(4,4-dimethylcyclohexyl)-9-(3-fluoro-5-((1-(3-fluoropropyl)azetidin-3-ylidene)methyl)pyridin-2-yl)-6,7-dihydro-5H-benzo[7]annulene-3-carboxylic acid] | 91 | 800 | –
CC1(C)CCC(C2=C(c3ncc(C=C4CN(CCC(F)F)C4)cc3F)c3ccc(C(=O)O)cc3CCC2)CC1 [Compound 66, 9-(5-((1-(3,3-difluoropropyl)azetidin-3-ylidene)methyl)-3-fluoropyridin-2-yl)-8-(4,4-dimethylcyclohexyl)-6,7-dihydro-5H-benzo[7]annulene-3-carboxylic acid] | 86 | 1700 | –
O=C(O)c1ccc2c(c1)CCCC(c1cccc3c1OCCC3)=C2c1ccc(C=C2CN(CCCF)C2)cc1 [Compound 67, 8-(chroman-8-yl)-9-(4-((1-(3-fluoropropyl)azetidin-3-ylidene)methyl)phenyl)-6,7-dihydro-5H-benzo[7]annulene-3-carboxylic acid] | 90 | 1000 | –
CC1(C)CCC(C2=C(c3ccc(C=C4CN(CCCF)C4)cc3)c3ccc(C(=O)O)cc3CCC2)CC1 [Compound 68, 8-(4,4-dimethylcyclohexyl)-9-(4-((1-(3-fluoropropyl)azetidin-3-ylidene)methyl)phenyl)-6,7-dihydro-5H-benzo[7]annulene-3-carboxylic acid] | 86 | – | 700
COc1cc(C(F)(F)F)cc(C(F)(F)F)c1C1=C(c2ccc(C=C3CN(CCCF)C3)cc2)c2ccc(C(=O)O)cc2CCC1 [Compound 71, 9-(4-((1-(3-fluoropropyl)azetidin-3-ylidene)methyl)phenyl)-8-(2-methoxy-4,6-bis(trifluoromethyl)phenyl)-6,7-dihydro-5H-benzo[7]annulene-3-carboxylic acid] | 95 | 500 | –
Cc1cc(C)c(C2=C(c3ccc(C=C4CN(CCCF)C4)cc3)c3ccc(C(=O)O)cc3CCC2)c(C(F)(F)F)c1 [Compound 72, 8-(2,4-dimethyl-6-(trifluoromethyl)phenyl)-9-(4-((1-(3-fluoropropyl)azetidin-3-ylidene)methyl)phenyl)-6,7-dihydro-5H-benzo[7]annulene-3-carboxylic acid] | 100 | 300 | –
Cc1c(C2=C(c3ccc(C=C4CN(CCCF)C4)cc3)c3ccc(C(=O)O)cc3CCC2)ccc(C(F)(F)F)c1F [Compound 73, 8-(3-fluoro-2-methyl-4-(trifluoromethyl)phenyl)-9-(4-((1-(3-fluoropropyl)azetidin-3-ylidene)methyl)phenyl)-6,7-dihydro-5H-benzo[7]annulene-3-carboxylic acid] | 85 | – | 300
CCc1cccc(CC)c1C1=C(c2ccc(C=C3CN(CCCF)C3)cc2)c2ccc(C(=O)O)cc2CCC1 [Compound 74, 8-(2,6-diethylphenyl)-9-(4-((1-(3-fluoropropyl)azetidin-3-ylidene)methyl)phenyl)-6,7-dihydro-5H-benzo[7]annulene-3-carboxylic acid] | 90 | 800 | –
Cc1ccc(F)c(C)c1C1=C(c2ccc(C=C3CN(CCCF)C3)cc2)c2ccc(C(=O)O)cc2CCC1 [Compound 75, 8-(3-fluoro-2,6-dimethylphenyl)-9-(4-((1-(3-fluoropropyl)azetidin-3-ylidene)methyl)phenyl)-6,7-dihydro-5H-benzo[7]annulene-3-carboxylic acid] | 95 | 200 | –
Cc1cc(C)c(C2=C(c3ccc(C=C4CN(CCCF)C4)cc3)c3ccc(C(=O)O)cc3CCC2)c(F)c1 [Compound 76, 8-(2-fluoro-4,6-dimethylphenyl)-9-(4-((1-(3-fluoropropyl)azetidin-3-ylidene)methyl)phenyl)-6,7-dihydro-5H-benzo[7]annulene-3-carboxylic acid] | 95 | 200 | –
Cc1cccc(OC(F)(F)F)c1C1=C(c2ccc(C=C3CN(CCCF)C3)cc2)c2ccc(C(=O)O)cc2CCC1 [Compound 77, 9-(4-((1-(3-fluoropropyl)azetidin-3-ylidene)methyl)phenyl)-8-(2-methyl-6-(trifluoromethoxy)phenyl)-6,7-dihydro-5H-benzo[7]annulene-3-carboxylic acid] | 95 | 700 | –
Cc1cc(C(F)(F)F)c(C)cc1C1=C(c2ccc(C=C3CN(CCCF)C3)cc2)c2ccc(C(=O)O)cc2CCC1 [Compound 78, 8-(2,5-dimethyl-4-(trifluoromethyl)phenyl)-9-(4-((1-(3-fluoropropyl)azetidin-3-ylidene)methyl)phenyl)-6,7-dihydro-5H-benzo[7]annulene-3-carboxylic acid] | 94 | 400 | –
O=C(O)c1ccc2c(c1)CCCC(c1cccc(C(F)(F)F)c1C(F)(F)F)=C2c1ccc(C=C2CN(CCCF)C2)cc1 [Compound 79, 8-(2,3-bis(trifluoromethyl)phenyl)-9-(4-((1-(3-fluoropropyl)azetidin-3-ylidene)methyl)phenyl)-6,7-dihydro-5H-benzo[7]annulene-3-carboxylic acid] | 100 | 400 | –
CCc1cc(C)cc(CC)c1C1=C(c2ccc(C=C3CN(CCCF)C3)cc2)c2ccc(C(=O)O)cc2CCC1 [Compound 80, 8-(2,6-diethyl-4-methylphenyl)-9-(4-((1-(3-fluoropropyl)azetidin-3-ylidene)methyl)phenyl)-6,7-dihydro-5H-benzo[7]annulene-3-carboxylic acid] | 105 | 1200 | –
COc1cccc(C2=C(c3ccc(C=C4CN(CCCF)C4)cc3)c3ccc(C(=O)O)cc3CCC2)c1OC [Compound 81, 8-(2,3-dimethoxyphenyl)-9-(4-((1-(3-fluoropropyl)azetidin-3-ylidene)methyl)phenyl)-6,7-dihydro-5H-benzo[7]annulene-3-carboxylic acid] | 92 | 700 | –
COc1ccc(C2=C(c3ccc(C=C4CN(CCCF)C4)cc3)c3ccc(C(=O)O)cc3CCC2)cc1OC [Compound 82, 8-(3,4-dimethoxyphenyl)-9-(4-((1-(3-fluoropropyl)azetidin-3-ylidene)methyl)phenyl)-6,7-dihydro-5H-benzo[7]annulene-3-carboxylic acid] | 95 | 1400 | –
COc1cc(Cl)cc(C)c1C1=C(c2ccc(C=C3CN(CCCF)C3)cc2)c2ccc(C(=O)O)cc2CCC1 [Compound 83, 8-(4-chloro-2-methoxy-6-methylphenyl)-9-(4-((1-(3-fluoropropyl)azetidin-3-ylidene)methyl)phenyl)-6,7-dihydro-5H-benzo[7]annulene-3-carboxylic acid] | 94 | 400 | –
Cc1ccc(C(F)(F)F)c(C)c1C1=C(c2ccc(C=C3CN(CCCF)C3)cc2)c2ccc(C(=O)O)cc2CCC1 [Compound 84, 8-(2,6-dimethyl-3-(trifluoromethyl)phenyl)-9-(4-((1-(3-fluoropropyl)azetidin-3-ylidene)methyl)phenyl)-6,7-dihydro-5H-benzo[7]annulene-3-carboxylic acid] | 91 | 600 | –
